# Assay results: patent US10613091B2, “Methods of developing a prognosis for pancreatic cancer and predicting responsiveness to cancer therapeutics” (DUKE UNIVERSITY, priority 2011, dated 2020)
# Tested on: pancreatic adenocarcinoma
# Test: Overall survival (OS) by baseline plasma analytes, CALGB 80303 gemcitabine +/- bevacizumab
# Assay type: in vivo, human
# Description: Eligibility of patients evaluated in this correlative analysis was described previously (Kindler et al., J Clin Oncol 2010 28(22):3617-3622). Briefly, eligible patients had histologically- or cytologically-confirmed pancreatic adenocarcinoma not amenable to curative surgery. Measurable disease was not required. Prior chemotherapy for metastatic disease was not permitted. […] Prior radiation was allowed if it was completed at least 4 weeks prior to enrollment and there was disease outside the radiation port. Patients were required to be at least 18 years of age and have a life expectancy of at least 12 weeks. Written informed consent was obtained from all patients participating in this correlative analysis.
# Gemcitabine (1,000 mg/m^2) was administered intravenously over 30 minutes on days 1, 8, and 15 of a 28-day cycle. […]
# Patterns of expression were analyzed at baseline and were correlated with overall survival (OS) and progression free survival (PFS) using univariate Cox proportional hazard regression models and multivariate Cox models with leave-one-out cross validation. Spearman's rank correlation coefficients were calculated for all pairs of analytes. […]
# The primary endpoint of interest will be overall survival (OS) with correlation to the blood analytes; however, progression-free survival (PFS) was evaluated. […]
substance,measurement,setting,value
bevacizumab: monoclonal antibody against VEGF,benefit from bevacizumab (overall survival),"VEGF-D above Q1, more than 1092.35 pg/mL, p=0.035",predicted for lack of benefit
same,benefit from bevacizumab (overall survival),"VEGF-D below Q1, less than 1092.35 pg/mL, p=0.033",predicted for benefit
